Reference: ChEMBL document CHEMBL1201862, “PubChem BioAssay data set” (2004)
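Step 1: Grow cells in 96-well plates. Step 2: Expose to compound for 48 hours at 5 concentrations. Step 3: Interpolate endpoints linearly; if unreached, use highest concentration. GI50 = concentration required for 50% inhibition of growth.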 Activity calls are given as the source filed them. No stated cut-off is given here; in the data, active = GI50 up to about 1.1 µM and inactive = higher.

What was measured:
Test in all cases: inhibition of tumour cell growth, NCI panel, 48 h
MOLT-4 = test system: MOLT-4
SK-MEL-2 = test system: SK-MEL-2
RXF 393 = test system: RXF 393
HT-29 = test system: HT-29
NCI-H23 = test system: NCI-H23
BT-549 = test system: BT-549
OVCAR-5 = test system: OVCAR-5
HCT-15 = test system: HCT-15
PC-3 = test system: PC-3
EKVX = test system: EKVX
OVCAR-8 = test system: OVCAR-8
RPMI-8226 = test system: RPMI-8226
SF-539 = test system: SF-539
MDA-N = test system: MDA-N
KM12 = test system: KM12
OVCAR-4 = test system: OVCAR-4
SNB-19 = test system: SNB-19
TK-10 = test system: TK-10
K562 = test system: K562
HL-60 = test system: HL-60

Row | Structure (SMILES) | GI50 (MOLT-4) | GI50 (SK-MEL-2) | GI50 (RXF 393) | GI50 (HT-29) | GI50 (NCI-H23) | GI50 (BT-549) | GI50 (OVCAR-5) | GI50 (HCT-15) [µM] | GI50 (PC-3) | GI50 (EKVX) | GI50 (OVCAR-8) | GI50 (RPMI-8226) | GI50 (SF-539) | GI50 (MDA-N) | GI50 (KM12) | GI50 (OVCAR-4) | GI50 (SNB-19) | GI50 (TK-10) | GI50 (K562) | GI50 (HL-60)
1 | CCOC(=O)N1C/C(=C\c2ccccc2)C(=O)/C(=C/c2ccccc2)C1 | 1.96 µM (inactive) | 6.7 µM (inactive) | 4.01 µM (inactive) | 1.49 µM (inactive) | 5.31 µM (inactive) | 2.3 µM (inactive) | 6.04 µM (inactive) | 2.32 | 2.16 µM (inactive) | 10.6 µM (inactive) | 2.82 µM (inactive) | 0.182 µM (active) | 5.08 µM (inactive) | 1.72 µM (inactive) | 2.03 µM (inactive) | 2.37 µM (inactive) | 4.72 µM (inactive) | 8.34 µM (inactive) | 1.44 µM (inactive) | 1.24 µM (inactive)
2 | Cc1cn(C2CC(N=[N+]=[N-])C(C(=O)O)O2)c(=O)[nH]c1=O (stereo not given) | > 100 µM (inactive) | > 100 µM (inactive) | > 100 µM (inactive) | > 100 µM (inactive) | > 100 µM (inactive) | > 100 µM (inactive) | > 100 µM (inactive) | > 100 | > 100 µM (inactive) | > 100 µM (inactive) | > 100 µM (inactive) | > 100 µM (inactive) | > 100 µM (inactive) | > 100 µM (inactive) | > 100 µM (inactive) | > 100 µM (inactive) | > 100 µM (inactive) | > 100 µM (inactive) | > 100 µM (inactive) | > 100 µM (inactive)
3 | CC(C)/C(Cl)=N\OC(=O)Nc1ccc(F)cc1F | 1.85 µM (inactive) | 13.6 µM (inactive) | 3.72 µM (inactive) | 3.82 µM (inactive) | 14.3 µM (inactive) | 13 µM (inactive) | 17.4 µM (inactive) | 7.67 | 17.2 µM (inactive) | 6.53 µM (inactive) | 15.6 µM (inactive) | 4.69 µM (inactive) | 15.8 µM (inactive) | 9.33 µM (inactive) | 17.7 µM (inactive) | 3.76 µM (inactive) | 19.5 µM (inactive) | 5.19 µM (inactive) | 1.26 µM (inactive) | 0.486 µM (active)
4 | CC(CC[C@@]1(O)OC2C[C@H]3[C@@H]4CC[C@H]5CC(OC6OC(CO)C(OC7OC(CO)C(O)C(OC8OCC(O)C(O)C8O)C7OC7OC(CO)C(O)C(O)C7O)C(O)C6O)[C@H](O)CC5(C)[C@H]4CCC3(C)C2[C@@H]1C)COC1OC(CO)C(O)C(O)C1O (stereo not given in full) | 2.45 µM (inactive) | 13.4 µM (inactive) | 4.28 µM (inactive) | 11 µM (inactive) | 2.8 µM (inactive) | 1.76 µM (inactive) | 11.7 µM (inactive) | 20.9 | 10.3 µM (inactive) | 2.38 µM (inactive) | 9.86 µM (inactive) | 19.4 µM (inactive) | 3.73 µM (inactive) | 15.4 µM (inactive) | 15.3 µM (inactive) | 9.79 µM (inactive) | 28.3 µM (inactive) | 2.39 µM (inactive) | 16.6 µM (inactive) | 6.9 µM (inactive)
5 | Cc1cc(C)nc(NS(=O)(=O)c2ccc(Nc3c4ccccc4nc4ccc(C(=O)Nc5ccc(S(N)(=O)=O)cc5)cc34)cc2)n1 | > 100 µM (inactive) | > 100 µM (inactive) | > 100 µM (inactive) | > 100 µM (inactive) | > 100 µM (inactive) | 24.9 µM (inactive) | > 100 µM (inactive) | > 100 | > 100 µM (inactive) | > 100 µM (inactive) | 43 µM (inactive) | 77.4 µM (inactive) | > 100 µM (inactive) | > 100 µM (inactive) | > 100 µM (inactive) | > 100 µM (inactive) | > 100 µM (inactive) | > 100 µM (inactive) | 66.4 µM (inactive) | > 100 µM (inactive)
6 | CC1OC(OC2C(O)COC(OC3C(C)OC(OC4C(OC(=O)[C@]56CCC(C)(C)C[C@@H]5C5=CCC7[C@@]8(C)C[C@H](O)[C@H](OC9OC(CO)C(O)C(OC%10OC(CO)C(O)C(O)C%10O)C9O)[C@@](C)(CO)[C@@H]8CC[C@@]7(C)[C@]5(C)CC6)OCC(O)C4O)C(O)C3OC3OCC(O)C(O)C3O)C2O)C(O)C(O)C1O (stereo not given in full) | 16.6 µM (inactive) | 3.47 µM (inactive) | 5.55 µM (inactive) | 18.7 µM (inactive) | 4.04 µM (inactive) | 9.57 µM (inactive) | 7.43 µM (inactive) | 13.5 | 4.36 µM (inactive) | 7.05 µM (inactive) | 13.1 µM (inactive) | 13.9 µM (inactive) | 14.6 µM (inactive) | 2.87 µM (inactive) | 8.61 µM (inactive) | 11.7 µM (inactive) | 7.67 µM (inactive) | 10 µM (inactive) | 16.7 µM (inactive) | 3.72 µM (inactive)
7 | CC1C(C#N)(C#N)C(C#N)=C(N)C1(Cl)[N+](=O)[O-] (stereo not given) | 1.72 µM (inactive) | 25.6 µM (inactive) | 4.33 µM (inactive) | 9.04 µM (inactive) | 18.7 µM (inactive) | 13.3 µM (inactive) | 14.9 µM (inactive) | 3.39 | 17.7 µM (inactive) | 17.8 µM (inactive) | 14.9 µM (inactive) | 11.2 µM (inactive) | 11.5 µM (inactive) | 9.04 µM (inactive) | 18.7 µM (inactive) | 12.8 µM (inactive) | 19.3 µM (inactive) | 14.9 µM (inactive) | 2.88 µM (inactive) | 2.37 µM (inactive)
8 | O=C(O)CC(NC(=O)/C(=C/c1ccccc1)NC(=O)c1ccccc1)C(=O)O (stereo not given) | > 100 µM (inactive) | > 100 µM (inactive) | > 100 µM (inactive) | > 100 µM (inactive) | > 100 µM (inactive) | > 100 µM (inactive) | > 100 µM (inactive) | > 100 | > 100 µM (inactive) | > 100 µM (inactive) | > 100 µM (inactive) | > 100 µM (inactive) | > 100 µM (inactive) | > 100 µM (inactive) | > 100 µM (inactive) | > 100 µM (inactive) | > 100 µM (inactive) | > 100 µM (inactive) | > 100 µM (inactive) | > 100 µM (inactive)
9 | Cc1ccc(/N=N/c2ccc(N)cc2C)c(S(N)(=O)=O)c1 | 64 µM (inactive) | > 100 µM (inactive) | > 100 µM (inactive) | 82.4 µM (inactive) | > 100 µM (inactive) | > 100 µM (inactive) | > 100 µM (inactive) | 71.4 | 89.7 µM (inactive) | 26.1 µM (inactive) | 76.7 µM (inactive) | 70.8 µM (inactive) | > 100 µM (inactive) | 71.9 µM (inactive) | > 100 µM (inactive) | > 100 µM (inactive) | > 100 µM (inactive) | 48.9 µM (inactive) | 75.9 µM (inactive) | 29.6 µM (inactive)
10 | CCCCCCCCCCCCCCCC(=O)Nc1ccn(C2CCC(COP(=O)(O)OCC3OC(n4cc(F)c(=O)[nH]c4=O)CC3OC(C)=O)O2)c(=O)n1 (stereo not given) | 9.31 µM (inactive) | 23.1 µM (inactive) | 22.4 µM (inactive) | 11.2 µM (inactive) | 8.18 µM (inactive) | 2.39 µM (inactive) | 34 µM (inactive) | 24.9 | 15.5 µM (inactive) | 28.8 µM (inactive) | 10.6 µM (inactive) | 2.88 µM (inactive) | 1.03 µM (active) | 19.6 µM (inactive) | 16.6 µM (inactive) | 14.1 µM (inactive) | 3.66 µM (inactive) | 24.4 µM (inactive) | 6.15 µM (inactive) | 11.2 µM (inactive)
11 | Cc1cccc2c(N)c3cccc(C(=O)NCC[N+](C)(C)Cc4ccc(S(C)(=O)=O)cc4)c3nc12 | 2.02 µM (inactive) | 98.4 µM (inactive) | 76.7 µM (inactive) | 36.6 µM (inactive) | 21.8 µM (inactive) | > 100 µM (inactive) | > 95.1 µM (inactive) | > 100 | 44.2 µM (inactive) | > 91.2 µM (inactive) | 79.6 µM (inactive) | 5.61 µM (inactive) | 32.4 µM (inactive) | > 100 µM (inactive) | 64.6 µM (inactive) | 41.4 µM (inactive) | 18.7 µM (inactive) | > 89.1 µM (inactive) | 10.1 µM (inactive) | 2.8 µM (inactive)
12 | NS(=O)(=O)c1ccc(/N=N/c2nc3[nH]cnc(=S)c3[nH]2)cc1 | 0.134 µM (active) | 0.971 µM (active) | 1.03 µM (active) | 1.34 µM (inactive) | 1.74 µM (inactive) | 1.3 µM (inactive) | 0.759 µM (active) | 2.09 | 3.73 µM (inactive) | 2.21 µM (inactive) | 0.593 µM (active) | 0.31 µM (active) | 3.92 µM (inactive) | 0.684 µM (active) | 4.1 µM (inactive) | 4.51 µM (inactive) | > 100 µM (inactive) | 0.474 µM (active) | 0.3 µM (active) | 2.77 µM (inactive)
13 | C#CCSc1nc(-c2ccco2)n[nH]1 | > 100 µM (inactive) | > 100 µM (inactive) | > 100 µM (inactive) | > 100 µM (inactive) | > 100 µM (inactive) | > 100 µM (inactive) | > 100 µM (inactive) | > 100 | > 100 µM (inactive) | > 100 µM (inactive) | > 100 µM (inactive) | > 100 µM (inactive) | > 100 µM (inactive) | > 100 µM (inactive) | > 100 µM (inactive) | > 100 µM (inactive) | > 100 µM (inactive) | > 100 µM (inactive) | > 100 µM (inactive) | > 100 µM (inactive)
